From patent US20260347347A1, “2-AZA-AND 2-OXABICYCLO[2.1.1]HEXANE DERIVATIVES AS FACTOR XIIA ENZYME INHIBITORS” (KALVISTA PHARMACEUTICALS LIMITED, priority 2022, published 2026)

Each compound was assayed against T1, Human Factor XIIa (Homo sapiens, UniProt P00748) (assay: Determination of FXIIa inhibition (in vitro IC50 assay, fluorogenic substrate H-DPro-Phe-Arg-AFC)). Conditions: human Factor XIIa; fluorogenic substrate H-DPro-Phe-Arg-AFC at Km concentration; 5 min, 25 °C; class symbols H1/H2 for % inhibition at top concentration.
T1 construct: purchased Enzyme Research Laboratories
T1 sequence (P00748 373-615 limits assumed): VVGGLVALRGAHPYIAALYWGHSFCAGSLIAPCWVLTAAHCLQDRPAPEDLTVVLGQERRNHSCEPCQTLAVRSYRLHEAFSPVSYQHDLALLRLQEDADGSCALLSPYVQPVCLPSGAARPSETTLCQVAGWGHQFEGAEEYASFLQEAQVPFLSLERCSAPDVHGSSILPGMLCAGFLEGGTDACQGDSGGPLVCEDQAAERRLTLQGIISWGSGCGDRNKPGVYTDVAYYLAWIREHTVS
T1 sequence (P00748 20-372 partner limits assumed): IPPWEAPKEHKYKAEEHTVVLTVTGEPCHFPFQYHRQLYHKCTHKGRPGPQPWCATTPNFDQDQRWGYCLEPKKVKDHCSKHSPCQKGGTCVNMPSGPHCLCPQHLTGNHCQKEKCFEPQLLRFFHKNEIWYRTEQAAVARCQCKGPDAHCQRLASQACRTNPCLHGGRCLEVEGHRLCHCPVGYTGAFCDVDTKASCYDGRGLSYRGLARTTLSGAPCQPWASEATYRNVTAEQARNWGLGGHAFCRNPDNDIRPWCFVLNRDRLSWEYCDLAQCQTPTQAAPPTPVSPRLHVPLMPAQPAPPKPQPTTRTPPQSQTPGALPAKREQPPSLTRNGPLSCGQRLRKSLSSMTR
Format: biochemical
Method: In vitro inhibition of Factor XIIa was determined using an IC50 assay based on standard literature methods (see e.g Baeriswyl et al., ACS Chem. Biol., 2015, 10 (8) 1861; Bouckaert et al., European Journal of Medicinal Chemistry 110 (2016) 181). Human Factor XIIa (Enzyme Research Laboratories) was incubated at 25 °C with the fluorogenic substrate H-DPro-Phe-Arg-AFC (Peptide Protein Science) and various concentrations of the test compound. Protease activity was measured by monitoring the accumulation of liberated fluorescence from the substrate over 5 min at 25 °C. The linear rate of fluorescence increase per minute was expressed as percentage (%) activity. The Km for the cleavage of the substrate by FXIIa was determined by standard transformation of the Michaelis-Menten equation. The compound inhibitor assays were performed at substrate Km concentration. IC50 values were calculated as the concentration of inhibitor giving 50% inhibition (IC50) of the uninhibited enzyme activity (100%).

| Human FXIIa inhibition (compounds that did not achieve 50% inhibition) | Structure (SMILES) |
| --- | --- |
| H2 (>20% inhibition @ 100 μM) | Cc1cc(OCC23CN(C(=O)NC4(c5ccccc5)CC4)C(CNc4cccnc4)(C2)C3)cc(=O)n1C [Example 55, 4-(((1,6-dimethyl-2-oxo-1,2-dihydropyridin-4-yl)oxy)methyl)-N-(1-phenylcyclopropyl)-1-((pyridin-3-ylamino)methyl)-2-azabicyclo[2.1.1]hexane-2-carboxamide] |

Same assay, conditions: human Factor XIIa; fluorogenic substrate H-DPro-Phe-Arg-AFC at Km concentration; 5 min, 25 °C; class symbols; read-out: Human FXIIa IC50

| IC50 [nM] | Structure (SMILES) |
| --- | --- |
| 10 to 100 | Cn1ccc(OCC23CN(C(=O)CCc4ccc5c(c4)CCO5)C(CNc4cccc5c(N)nccc45)(C2)C3)cc1=O [Example 14, 4-((1-(((1-aminoisoquinolin-5-yl)amino)methyl)-2-(3-(2,3-dihydrobenzofuran-5-yl)propanoyl)-2-azabicyclo[2.1.1]hexan-4-yl)methoxy)-1-methylpyridin-2(1H)-one] |
| 10 to 100 | CO[C@H]1CC[C@@H](CC(=O)N2CC3(COc4cc(C)n(C)c(=O)c4)CC2(CNc2cccc4c(N)nccc24)C3)CC1 (single isomer, unassigned) [Example 25, 4-((1-(((1-aminoisoquinolin-5-yl)amino)methyl)-2-(2-((1s,4s)-4-methoxycyclohexyl)acetyl)-2-azabicyclo[2.1.1]hexan-4-yl)methoxy)-1,6-dimethylpyridin-2(1H)-one] |
| 1 to 10 | Cn1ccc(OCC23CN(C(=O)Cc4ccc5c(c4)CCO5)C(CNc4cccc5c(N)nccc45)(C2)C3)cc1=O [Example 3, 4-((1-(((1-aminoisoquinolin-5-yl)amino)methyl)-2-(2-(2,3-dihydrobenzofuran-5-yl)acetyl)-2-azabicyclo[2.1.1]hexan-4-yl)methoxy)-1-methylpyridin-2(1H)-one] |
| 1 to 10 | Cn1ccc(OCC23CN(C(=O)NC4(c5ccccc5)COC4)C(CNc4cccc5c(N)nccc45)(C2)C3)cc1=O [Example 69, 1-(((1-aminoisoquinolin-5-yl)amino)methyl)-4-(((1-methyl-2-oxo-1,2-dihydropyridin-4-yl)oxy)methyl)-N-(3-phenyloxetan-3-yl)-2-azabicyclo [2.1.1]hexane-2-carboxamide] |
| 100 to 300 | Cn1ccc(OCC23CN(C(=O)N4CCc5ccccc5C4)C(CNc4cccc5c(N)nccc45)(C2)C3)cc1=O [Example 37, 4-((1-(((1-aminoisoquinolin-5-yl)amino)methyl)-2-(1,2,3,4-tetrahydroisoquinoline-2-carbonyl)-2-azabicyclo[2.1.1]hexan-4-yl)methoxy)-1-methylpyridin-2(1H)-one] |
| 10 to 100 | Cc1cc(OCC23CN(C(=O)N4CCCC5(C4)CC5(F)F)C(CNc4cccc5c(N)nccc45)(C2)C3)cc(=O)n1C (stereo not drawn) [Example 87, 4-((1-(((1-aminoisoquinolin-5-yl)amino)methyl)-2-(1,1-difluoro-5-azaspiro[2.5]octane-5-carbonyl)-2-azabicyclo[2.1.1]hexan-4-yl)methoxy)-1,6-dimethylpyridin-2(1H)-one] |
| 10 to 100 | Cn1ccc(OCC23CN(C(=O)NCC4(C)COC4)C(CNc4cccc5c(N)nccc45)(C2)C3)cc1=O [Example 76, 1-(((1-aminoisoquinolin-5-yl)amino)methyl)-4-(((1-methyl-2-oxo-1,2-dihydropyridin-4-yl)oxy)methyl)-N-((3-methyloxetan-3-yl)methyl)-2-azabicyclo[2.1.1]hexane-2-carboxamide] |
| 10 to 100 | Cn1ccc(OCC23CN(C(=O)NCC4CCOCC4)C(CNc4cccc5c(N)nccc45)(C2)C3)cc1=O [Example 77, 1-(((1-aminoisoquinolin-5-yl)amino)methyl)-4-(((1-methyl-2-oxo-1,2-dihydropyridin-4-yl)oxy)methyl)-N-((tetrahydro-2H-pyran-4-yl)methyl)-2-azabicyclo[2.1.1]hexane-2-carboxamide] |
| 10 to 100 | Cc1cc(OCC23CN(C(=O)N4CCC5(CCCC5)C4)C(CNc4cccc5c(N)nccc45)(C2)C3)cc(=O)n1C [Example 85, 4-((1-(((1-aminoisoquinolin-5-yl)amino)methyl)-2-(2-azaspiro[4.4]nonane-2-carbonyl)-2-azabicyclo[2.1.1]hexan-4-yl)methoxy)-1,6-dimethylpyridin-2(1H)-one] |
| 1 to 10 | Cn1ccc(OCC23CN(C(=O)Cc4ccc5c(c4)NC(=O)CO5)C(CNc4cccc5c(N)nccc45)(C2)C3)cc1=O [Example 17, 6-(2-(1-(((1-aminoisoquinolin-5-yl)amino)methyl)-4-(((1-methyl-2-oxo-1,2-dihydropyridin-4-yl)oxy)methyl)-2-azabicyclo[2.1.1]hexan-2-yl)-2-oxoethyl)-2H-benzo[b][1,4]oxazin-3(4H)-one] |
| 40000 to 100000 | Nc1nccc2c(NCC34CC(c5ncc(-c6ccccc6)o5)(CO3)C4)cccc12 [Example 1, N5-((4-(5-Phenyloxazol-2-yl)-2-oxabicyclo[2.1.1]hexan-1-yl)methyl)isoquinoline-1,5-diamine] |
| 10 to 100 | Cc1cc(OCC23CN(C(=O)Nc4ccc5c(c4)OC(F)(F)O5)C(CNc4cccc5c(N)nccc45)(C2)C3)cc(=O)n1C [Example 92, 1-(((1-aminoisoquinolin-5-yl)amino)methyl)-N-(2,2-difluorobenzo[d][1,3]dioxol-5-yl)-4-(((1,6-dimethyl-2-oxo-1,2-dihydropyridin-4-yl)oxy)methyl)-2-azabicyclo[2.1.1]hexane-2-carboxamide] |
| 10 to 100 | Cn1ccc(OCC23CN(C(=O)N4CCCCC4)C(CNc4cccc5c(N)nccc45)(C2)C3)cc1=O [Example 54, 4-((1-(((1-aminoisoquinolin-5-yl)amino)methyl)-2-(piperidine-1-carbonyl)-2-azabicyclo[2.1.1]hexan-4-yl)methoxy)-1-methylpyridin-2(1H)-one] |
| 10 to 100 | CC(=O)N1CCC(CC(=O)N2CC3(COc4ccn(C)c(=O)c4)CC2(CNc2cccc4c(N)nccc24)C3)CC1 [Example 16, 4-((2-(2-(1-acetylpiperidin-4-yl)acetyl)-1-(((1-aminoisoquinolin-5-yl)amino)methyl)-2-azabicyclo[2.1.1]hexan-4-yl)methoxy)-1-methylpyridin-2(1H)-one] |
| 10 to 100 | Cn1ccc(OCC23CN(C(=O)NC4C(C)(C)C4(C)C)C(CNc4cccc5c(N)nccc45)(C2)C3)cc1=O [Example 80, 1-(((1-aminoisoquinolin-5-yl)amino)methyl)-4-(((1-methyl-2-oxo-1,2-dihydropyridin-4-yl)oxy)methyl)-N-(2,2,3,3-tetramethylcyclopropyl)-2-azabicyclo [2.1.1]hexane-2-carboxamide] |
| 10 to 100 | Cn1ccc(OCC23CN(C(=O)NCCCOCc4ccccc4)C(CNc4cccc5c(N)nccc45)(C2)C3)cc1=O [Example 82, 1-(((1-aminoisoquinolin-5-yl)amino)methyl)-N-(3-(benzyloxy)propyl)-4-(((1-methyl-2-oxo-1,2-dihydropyridin-4-yl)oxy)methyl)-2-azabicyclo[2.1.1]hexane-2-carboxamide] |
| 1 to 10 | Cn1ccc(OCC23CN(C(=O)Nc4ccc5c(c4)CCO5)C(CNc4cccc5c(N)nccc45)(C2)C3)cc1=O [Example 38, 1-(((1-aminoisoquinolin-5-yl)amino)methyl)-N-(2,3-dihydrobenzofuran-5-yl)-4-(((1-methyl-2-oxo-1,2-dihydropyridin-4-yl)oxy)methyl)-2-azabicyclo[2.1.1]hexane-2-carboxamide] |
